Columns and labels:
[1] = test system: newly diagnosed, treatment-naïve subjects with PAH
Text: The following safety endpoints will be used: • Treatment-emergent AEs. • AEs leading to premature discontinuation of any of the 3 study treatments. • Treatment-emergent SAEs. • Treatment-emergent deaths. • Treatment-emergent marked laboratory abnormalities. • Change from baseline in laboratory variables. • Change from baseline in vital signs.
The safety endpoints will be analyzed for the following time periods: • From Day 1 until EOMOP. • From Day 1 until start of double-blind treatment (selexipag/placebo). • From start until discontinuation of macitentan study treatment (or until EOMOP, whichever is first)+30 days safety follow up. • From start until discontinuation of tadalafil study treatment (or until EOMOP, whichever is first)+30 days safety follow up. • From start until discontinuation of double-blind treatment (or until EOMOP, whichever is first)+30 days safety follow up. • From EOMOP until EOT plus 30 days safety follow-up. • The 30 days safety follow-up.

[2] = test system: newly diagnosed, treatment-naïve subjects with PAH; test: Exposure to study treatments, individual maintenance dose and maximum tolerated dose; type: in vivo, human; conditions: up to EOMOP; Safety Set
Procedure: The starting dose of double-blind selexipag or placebo on Day 15±3 is 200 μg twice daily (in the morning and in the evening). The dose is up-titrated in increments of 200 μg twice daily, usually at weekly intervals (see Table 1), until either a maximum dose of 1600 μg twice daily is reached or adverse pharmacological effects that cannot be tolerated or medically managed are experienced, whichever is first. In the event of adverse effects typical of prostanoid therapy, it is recommended not to discontinue double-blind treatment because these effects are usually transient or manageable with symptomatic treatment. If a dose that cannot be tolerated is reached, the dose should be reduced to the previous dose level.

[3] = risk TEAEs (EU Uptravi RMP) up to EOMOP

## CC(C)N(CCCCOCC(=O)NS(C)(=O)=O)c1cnc(-c2ccccc2)c(-c2ccccc2)n1 [Selexipag, 2-{4-[(5,6-diphenylpyrazin-2-yl)(propan-2-yl)amino]butoxy}-N-(methanesulfonyl)acetamide]
[1]; in vivo
  Tolerability as part of the initial triple therapy regimen: well-tolerated
[1]; [3]
  Bleeding events: PT Blood loss anaemia, %: (0.8) %
  Bleeding events: PT Conjunctival haemorrhage, %: (0.8) %
  Bleeding events: PT Contusion, %: (0.8) %
  Bleeding events: PT Epistaxis, %: (9.2) %
  Bleeding events: PT Gastrointestinal haemorrhage, %: (3.4) %
  Bleeding events: PT Gastrointestinal polyp haemorrhage, %: (0.8) %
  Bleeding events: PT Gingival bleeding, %: (0.8) %
  Bleeding events: PT Haematochezia, %: (0.8) %
  Bleeding events: PT Haematoma, %: (1.7) %
  Bleeding events: PT Haemoptysis, %: (0.8) %
  Bleeding events: PT Haemorrhoidal haemorrhage, %: (0.8) %
  Bleeding events: PT Hereditary haemorrhagic telangiectasia, %: (0.8) %
  Bleeding events: PT Melaena, %: (0.8) %
  Bleeding events: PT Menorrhagia, %: (0.8) %
  Bleeding events: PT Metrorrhagia, %: (1.7) %
  Bleeding events: PT Upper gastrointestinal haemorrhage, %: (1.7) %
  Bleeding events: PT Vaginal haemorrhage, %: (0.8) %
  Bleeding events: PT Vascular rupture, %: (0.8) %
  GI intussusception risk: PT Small intestinal obstruction, %: (0.8) %
  MACE: PT Transient ischaemic attack, %: (0.8) %
  Medication errors: PT Accidental overdose, %: (0.8) %
  Ophthalmological risk: PT Blindness, %: (0.8) %
  Ophthalmological risk: PT Photopsia, %: (0.8) %
  Ophthalmological risk: PT Retinal vasculitis, %: (0.8) %
  Ophthalmological risk: PT Vision blurred, %: (1.7) %
  Ophthalmological risk: PT Vitreous floaters, %: (0.8) %
  PVOD/pulmonary oedema risk: PT Pulmonary oedema, %: (0.8) %
  PVOD/pulmonary oedema risk: PT Pulmonary veno-occlusive disease, %: (0.8) %
  Renal risk: PT Acute kidney injury, %: (3.4) %
  Renal risk: PT Blood creatinine increased, %: (2.5) %
  Renal risk: PT Glomerular filtration rate decreased, %: (0.8) %
  Renal risk: PT Prerenal failure, %: (0.8) %
  Renal risk: PT Renal failure, %: (0.8) %
  Renal risk: PT Renal impairment, %: (0.8) %
  Risk Anaemia (all PTs), %: (25.2) %
  Risk Anaemia: PT Anaemia, %: (12.6) %
  Risk Anaemia: PT Blood loss anaemia, %: (0.8) %
  Risk Anaemia: PT Haematocrit decreased, %: (0.8) %
  Risk Anaemia: PT Haemoglobin decreased, %: (6.7) %
  Risk Anaemia: PT Iron deficiency anaemia, %: (6.7) %
  Risk Anaemia: PT Microcytic anaemia, %: (1.7) %
  Risk Anaemia: PT Red blood cell count decreased, %: (0.8) %
  Risk Bleeding events (all PTs), %: (21.8) %
  Risk Gastrointestinal disturbances denoting intestinal intussusception (manifested as ileus or obstruction), %: (0.8) %
  Risk Hypotension (all PTs), %: (8.4) %
  Risk Hypotension: PT Hypotension, %: (7.6) %
  Risk Hypotension: PT Orthostatic hypotension, %: (0.8) %
  Risk Light-dependent non-melanoma skin malignancies (all PTs), %: (0.8) %
  Risk Major adverse cardiovascular events (MACE) (all PTs), %: (0.8) %
  Risk Medication errors (all PTs), %: (0.8) %
  Risk Ophthalmological effects associated to retinal vascular system (all PTs), %: (4.2) %
  Risk Pulmonary venoocclusive disease associated with pulmonary oedema (all PTs), %: (1.7) %
  Risk Renal function impairment/acute renal failure (all PTs), %: (8.4) %
  Skin malignancies risk: PT Basal cell carcinoma, %: (0.8) %
  Subjects with At Least One Identified or Potential Risk AE, %: (49.6) %
[2]
  Maximum tolerated dose of double-blind treatment (b.i.d), Median: 1000.0 µg

Source: patent publication US12485119B2, “Methods of treating pulmonary arterial hypertension” (ACTELION PHARMACEUTICALS LTD, priority 2019, dated 2025)
